Measured values reported in patent US6909001B2 (Pharmacia Corporation, priority 2002, dated 2005).

Assays:
[1] = tested on: LPS-induced TNFα production; test: Lipopolysaccharide (LPS)-Induced TNFα Production (Rat LPS Assay); type: in vivo; conditions: at 20 mpk (IP)
MK-2 = conditions: cited from earlier work
[2] = tested on: collagen-induced arthritis; conditions: mouse; cited from earlier work
endotoxin-induced shock = conditions: murine model of endotoxin-induced shock; cited from earlier work
adjuvant arthritis = conditions: rat; cited from earlier work
granulomas = conditions: laboratory rats; cited from earlier work

N#Cc1c(N)nc2c(c1N)Cc1ccc(OCCN)cc1O2 [Example 12, 2,4-diamino-8-(2-aminoethoxy)-5H-chromeno[2,3-b]pyridine-3-carbonitrile]
Rat LPS Assay inhibition [1]: 88%

C[S+]([O-])c1ccc(-c2nc(-c3ccncc3)c(-c3ccc(F)cc3)[nH]2)cc1 (stereo not drawn) [SB203580]
inhibition of activation of MK-2 (MK-2): inhibit activation of MK-2 | development of collagen-induced arthritis [2]: inhibit the development | mortality (endotoxin-induced shock): reduce mortality | development of adjuvant arthritis (adjuvant arthritis): inhibit the development

Nc1nccc(-c2c(-c3ccc(F)cc3)ncn2C2CCNCC2)n1 [SB 220025]
vascular density of granulomas (granulomas): significant dose-dependent decrease in vascular density of granulomas
